The values below come from ChEMBL document CHEMBL1201862, “PubChem BioAssay data set” (2004).

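How tested: cells in 96-well plates exposed to compound for 48 hours at five concentrations. Abbreviation: GI50, concentration required for 50% inhibition of growth.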 Active and inactive are the calls of the source. Rule as the data show it: active = GI50 up to about 1.1 µM and inactive = higher.

Test systems include 786-0; EKVX; HCT-116; HCT-15; HOP-62; IGROV-1; NCI-H226; NCI-H23; NCI/ADR-RES; OVCAR-8; PC-3; RPMI-8226; RXF 393; SK-MEL-2; SK-OV-3; SW-620; T47D.
Holding throughout (assay): DTP human tumour cell line panel, 48 h

Broadly, the GI50 is the concentration at which growth is held to half of that of the control. Consider `O=C(O)C/C=C/CC(=O)O`, for which the GI50 is > 100 µM (inactive) in the assay on 786-0; > 100 µM (inactive) in the assay with EKVX; > 100 µM (inactive) in the assay with HCT-116; more than 100 µM with HCT-15; > 100 µM (inactive) in the assay with HOP-62; > 100 µM (inactive) with IGROV-1. The GI50 in the assay on NCI-H226, in the assay on NCI-H23, in the assay on NCI/ADR-RES, with OVCAR-8, in the assay on PC-3 and with RPMI-8226 was > 100 µM (inactive) throughout. For the same compound, the GI50 in the assay with RXF 393, in the assay with SK-MEL-2, in the assay with SK-OV-3, with SW-620 and with T47D was > 100 µM (inactive) each time.
With `CC(=O)Nc1[nH]c(C#N)nc1C#N`, the GI50 was > 100 µM (inactive) in the assay on 786-0; > 100 µM (inactive) in the assay with EKVX; > 100 µM (inactive) in the assay on HCT-116; more than 100 µM in the assay with HCT-15; > 100 µM (inactive) in the assay with HOP-62; > 100 µM (inactive) in the assay with IGROV-1. The GI50 in the assay on NCI-H226, in the assay with NCI-H23, in the assay on NCI/ADR-RES, with OVCAR-8, in the assay with PC-3 and with RPMI-8226 was > 100 µM (inactive) in each case. Besides, the GI50 with RXF 393, in the assay with SK-MEL-2, with SK-OV-3, in the assay on SW-620 and in the assay with T47D was > 100 µM (inactive) each time.
In the case of `c1ccc2c(c1)[nH]c1c3ccccc3sc21`, the GI50 with 786-0 is > 100 µM (inactive); with EKVX it was 26.4 µM (inactive); with HCT-116 it was 82.6 µM (inactive); in the assay with HCT-15, more than 100 µM; with HOP-62, > 100 µM (inactive); in the assay with IGROV-1, > 100 µM (inactive). Further, the GI50 with NCI-H226, in the assay with NCI-H23, in the assay on NCI/ADR-RES, in the assay with OVCAR-8, with PC-3 and with RPMI-8226 was > 100 µM (inactive) each time. Further, the GI50 with RXF 393 is 26.5 µM (inactive); with SK-MEL-2, > 100 µM (inactive); in the assay on SK-OV-3, > 100 µM (inactive); in the assay with SW-620, > 100 µM (inactive); in the assay on T47D it was 38.3 µM (inactive).
Take `O=C1Nc2ccccc2/C1=C\c1c(Cl)n(-c2ccccc2)c2ccccc12`: the GI50 in the assay with 786-0 was 2.67 µM (inactive); with EKVX, 2.33 µM (inactive); in the assay with HCT-116, 2.11 µM (inactive); in the assay on HCT-15, 2.49 µM; with HOP-62 it was 4.68 µM (inactive); in the assay on IGROV-1 it was 2.75 µM (inactive). In addition, the GI50 is 1.7 µM (inactive) in the assay on NCI-H226; 2.45 µM (inactive) with NCI-H23; 2.38 µM (inactive) with NCI/ADR-RES; 2.71 µM (inactive) with OVCAR-8; 3.78 µM (inactive) in the assay on PC-3; 4.92 µM (inactive) with RPMI-8226. Also, the GI50 in the assay on RXF 393 is 2.14 µM (inactive); in the assay on SK-MEL-2 it was 8.69 µM (inactive); in the assay on SK-OV-3, 4.07 µM (inactive); in the assay with SW-620, 2.47 µM (inactive); with T47D, 3.41 µM (inactive).
`NC(=S)NNCC(=O)CC(O)(C(F)(F)F)C(F)(F)Cl` (stereo not given): the GI50 with 786-0 was > 100 µM (inactive); with EKVX it was > 100 µM (inactive); in the assay on HCT-116, > 100 µM (inactive); in the assay with HCT-15, more than 100 µM; in the assay with IGROV-1, > 100 µM (inactive); with NCI-H226, > 100 µM (inactive). For the same compound, the GI50 in the assay with NCI-H23 was > 100 µM (inactive); with NCI/ADR-RES it was > 100 µM (inactive); in the assay on OVCAR-8 it was > 100 µM (inactive); with PC-3 it was > 100 µM (inactive); with RPMI-8226, > 100 µM (inactive); with RXF 393, 38.5 µM (inactive). For the same compound, the GI50 with SK-MEL-2 is > 100 µM (inactive); in the assay with SK-OV-3 it was > 100 µM (inactive); in the assay on SW-620 it was > 100 µM (inactive); with T47D, 64.7 µM (inactive).
As for `CC(CCN)(CCN)[N+](=O)[O-]`, the GI50 was > 100 µM (inactive) in the assay with 786-0; > 100 µM (inactive) with EKVX; > 100 µM (inactive) with HCT-116; more than 100 µM in the assay with HCT-15; > 100 µM (inactive) with HOP-62; > 100 µM (inactive) in the assay on IGROV-1. The GI50 in the assay on NCI-H226, in the assay with NCI-H23, with NCI/ADR-RES, in the assay with OVCAR-8, with PC-3 and with RPMI-8226 was > 100 µM (inactive) throughout. The GI50 with RXF 393, in the assay with SK-MEL-2, with SK-OV-3, in the assay on SW-620 and in the assay on T47D was > 100 µM (inactive) in each case.
Turning to `CC(=O)N[C@H]1CCCC[C@@H]1OC(C)=O`, the GI50 in the assay on 786-0 was > 100 µM (inactive); in the assay with EKVX, > 100 µM (inactive); with HCT-116, > 100 µM (inactive); in the assay on HCT-15, more than 100 µM; in the assay on HOP-62, > 100 µM (inactive); in the assay with IGROV-1 it was > 100 µM (inactive). For the same compound, the GI50 in the assay on NCI-H226, in the assay on NCI-H23, in the assay with NCI/ADR-RES, in the assay on OVCAR-8, in the assay with PC-3 and in the assay with RPMI-8226 was > 100 µM (inactive) in each case. In addition, the GI50 with RXF 393, with SK-MEL-2, with SK-OV-3, with SW-620 and in the assay with T47D was > 100 µM (inactive) each time.
As to `CCCCCc1cc2cc3c(c(O)c2c(=O)[nH]1)C1(CCC3)C(=O)c2c(O)c3c(c(O)c2C1=O)C(=O)C(OC)=CC3=O` (stereo not given), the GI50 is 0.746 µM (active) with 786-0; 0.361 µM (active) in the assay with EKVX; 0.561 µM (active) in the assay with HCT-116; 0.42 µM in the assay with HCT-15; 3.33 µM (inactive) with HOP-62; 1.03 µM (active) in the assay on IGROV-1. Besides, the GI50 in the assay on NCI-H226 is 1.87 µM (inactive); in the assay with NCI-H23, 0.828 µM (active); in the assay on NCI/ADR-RES it was 4.56 µM (inactive); with OVCAR-8, 0.714 µM (active); in the assay with PC-3, 1.1 µM (active); with RPMI-8226 it was 0.386 µM (active). Besides, the GI50 is 0.673 µM (active) with RXF 393; 1.24 µM (inactive) in the assay on SK-MEL-2; 2.24 µM (inactive) with SK-OV-3; 0.681 µM (active) in the assay with SW-620; 0.0959 µM (active) with T47D.
On to `Cc1cc2[nH]c3c(C#N)c(-c4ccccc4)c(/N=N/c4cccc(C(F)(F)F)c4)c(=O)n3c2cc1C`, for which the GI50 was 35.8 µM (inactive) with 786-0; 23.4 µM (inactive) in the assay on EKVX; 13.7 µM (inactive) in the assay on HCT-116; 37 µM in the assay with HCT-15; > 100 µM (inactive) in the assay with HOP-62; 21.8 µM (inactive) in the assay with IGROV-1. The GI50 in the assay on NCI-H226 is 25.2 µM (inactive); in the assay on NCI-H23 it was 14.6 µM (inactive); in the assay on NCI/ADR-RES it was 34.3 µM (inactive); with OVCAR-8 it was 26.1 µM (inactive); in the assay on PC-3 it was 32.2 µM (inactive); in the assay with RPMI-8226, 5.35 µM (inactive). Besides, the GI50 with RXF 393 was 54.5 µM (inactive); with SK-MEL-2, 58.1 µM (inactive); in the assay with SK-OV-3, 32.4 µM (inactive); with SW-620, 35.8 µM (inactive); with T47D it was 20.3 µM (inactive).
Take `CCc1nc(N)c2nc(-c3cccs3)oc2n1`: the GI50 was > 100 µM (inactive) in the assay on 786-0; 50.1 µM (inactive) with EKVX; > 100 µM (inactive) in the assay on HCT-116; 86.9 µM with HCT-15; > 100 µM (inactive) with HOP-62; 69.7 µM (inactive) in the assay on IGROV-1. Also, the GI50 in the assay on NCI-H226 was > 100 µM (inactive); in the assay on NCI-H23 it was > 100 µM (inactive); in the assay on NCI/ADR-RES, > 100 µM (inactive); in the assay on OVCAR-8, > 100 µM (inactive); in the assay on PC-3 it was > 100 µM (inactive); in the assay with RPMI-8226, 84.1 µM (inactive). The GI50 in the assay on RXF 393 is > 100 µM (inactive); with SK-MEL-2 it was > 100 µM (inactive); in the assay with SW-620, > 100 µM (inactive); with T47D, 79.8 µM (inactive).
Consider `CC(SC(=S)N1CCCCC1)C(=O)Nc1nnc(-c2ccc(Cl)cc2)o1` (stereo not given), for which the GI50 was 16.9 µM (inactive) with 786-0; 17.7 µM (inactive) in the assay with HCT-116; 13 µM in the assay on HCT-15; 11.8 µM (inactive) with HOP-62; 32 µM (inactive) in the assay with IGROV-1; 38.5 µM (inactive) in the assay on NCI-H226. The GI50 in the assay with NCI-H23 was 42.1 µM (inactive); in the assay with NCI/ADR-RES, 17.5 µM (inactive); with OVCAR-8 it was 38.5 µM (inactive); in the assay with PC-3, 24.2 µM (inactive); in the assay on RPMI-8226, 20.2 µM (inactive); in the assay with RXF 393, 31.6 µM (inactive). The GI50 in the assay on SK-MEL-2 was 21.7 µM (inactive); in the assay with SK-OV-3, 21.5 µM (inactive); in the assay on SW-620, 36.2 µM (inactive); with T47D it was 36.8 µM (inactive).
For the compound `COc1ccc(/C=N\NC(=O)Nc2cccc3ccccc23)cc1`, the GI50 is 11.4 µM (inactive) in the assay on 786-0; 26.9 µM (inactive) in the assay on EKVX; 13.7 µM (inactive) in the assay on HCT-116; 6.79 µM in the assay on HCT-15; 11 µM (inactive) in the assay on HOP-62; 17.3 µM (inactive) in the assay on IGROV-1. For the same compound, the GI50 in the assay with NCI-H226 is 28.2 µM (inactive); in the assay on NCI-H23, 34.6 µM (inactive); in the assay on NCI/ADR-RES, 22 µM (inactive); in the assay with OVCAR-8, > 10 µM (inactive); in the assay with PC-3, 20.8 µM (inactive); in the assay on RPMI-8226, > 100 µM (inactive). Further, the GI50 in the assay with RXF 393 is > 10 µM (inactive); with SK-MEL-2 it was 9.14 µM (inactive); in the assay with SW-620 it was 51.6 µM (inactive); in the assay with T47D it was 14.1 µM (inactive).
